Laboratory results reported in patent publication US12496298B2, “Natural killer cells” (Imperial College Innovations Limited, priority 2017, dated 2025).

System: Human CD34+ cells
Assay: In vitro development of human NK cells (hCD56+ hCD45+) from CD34+ umbilical cord blood progenitor cells
Type: cell-based
Experimental: FIG. 9: Human CD34^+ cells were cultured with the addition of 5 μM SR8278 at Day 4. At Day 14 and 16, percentage of hCD56^+ hCD45^+ (markers for human NK cells) cells was quantified using flow cytometry. (A) Graph showing percentage of hCD56^+ hCD45^+ cells compared to the ‘No drug’ control in different conditions. (B) Flow cytometry gating strategy for identification of human NK cells. (C) Representative flow cytometry results with percentage of NK cells shown. Results were averaged from one experiments with six repeats each and the error bars represent the mean+SD.
The hypothesis that SR8278 increases NK cells production would not have any potential therapeutic value if it was not also true for human NK cell production. Therefore, the effect of SR8278 on human NK cell production from human HPCs was examined. Human HPCs were obtained as the CD34^+ population purified from umbilical cord blood from collaborators at the Anthony Nolan Research Institute, London. Human NK cell development goes through a similar developmental pathway to mouse NK cell development. By contrast with mouse HPC culture, human CD34^+ cells were cultured straight onto EL08-1D2 stromal cells in the presence of IL-3, IL-7, FIt3L, SCF and IL-15 cytokines for 14 and 16 days before harvesting and analysis by flow cytometry. To try to optimise human NK cell production, 5 or 10 μM SR8278 were added on either day 2, 4 or 6 of the culture.
OP9-GFP stromal cells were cultured in Iscove's Modified Dulbecco's Media (IMDM) (Sigma Aldrich) supplemented with 20% Fetal Bovine Serum (FBS), and Penicillin/[…] (P/S). For experiments done on 96-well plates, OP9 stromal cells were plated at the concentration of 2000 cells/well and incubated at 37° C., 5% CO2 for 1 day before the addition of HPCs. For experiments done on 24-well plates, OP9 stromal cells were plated at the concentration of 4000 cells/well and were incubated at 37° C. 5% CO2 for 2 days prior to addition of HPCs. EL08.1D2 stromal cells were cultured in Minimum Essential Medium Eagle—Alpha Modification (Alpha-MEM) supplemented with 50% Myelocult M5300 (Stem Cell Technologies), 7.5% FBS, 50 μM β-Mercaptoethanol, 1 μM Hydrocortisone and 1% P/S (Sigma Aldrich). For human CD34^+ progenitor cell experiments, EL08.1D2 were irradiated at 3000 rads/30 Gy and plated in 96-well EmbryoMax Gelatin (Millipore)-coated plates at the concentration of 20,000 cells/well. There were cultured at 32° C., 5% CO2 overnight, before CD34^+ cells were transferred onto them.
CD34^+ umbilical cord blood progenitor cells were provided by Anthony Nolan Research Institute, University College London. These cells were isolated from whole cord blood and were cryopreserved in liquid nitrogen for storage and transport. Cells were thawed, counted and then plated on EL08.1D2 plates prepared previously at a concentration of 1000 cells/well in human NK cells differentiation medium (Alpha-MEM plus 20% Human AB serum (Invitrogen), 50 μM β-Mercaptoethanol and 1% P/S along with 5 ng/ml human-IL-3 (Peprotech), 20 ng/ml human-IL-7 (Peprotech), 10 ng/ml human-Flt3-L (Peprotech), 20 ng/ml human-SCF (Peprotech) and 10 ng/ml human-IL-15 (Peprotech). Note that human-IL-3 is only needed for the first week of culture. Cells were left in the culture at 37° C., 5% CO2 for 14 or 16 days with a change of human NK differentiation medium at day 7 and 12.
Cells to be analysed by flow cytometry were passed through 40 μm cell strainers to remove clumps and washed with PBS buffer, centrifuged at 800 g for 2 minutes and resuspended in 100 μl fluorescent activated cell sorting (FACS) buffer (PBS plus 1% BSA) with appropriate fluorochrome conjugated antibodies at a dilution of 1 in 300. […]

In the case of `CCOC(=O)C1Cc2ccccc2CN1C(=O)c1ccc(SC)s1` (stereo not drawn) [SR8278, 1,2,3,4-Tetrahydro-2-[[5-(methylthio)-2-thienyl]carbonyl]-3-isoquinolinecarboxylic acid ethyl ester], the “change of percentage of NK cells versus 'No drug' control” value (5 μM added at Day 4, harvested at Day 14) is reported as “almost tripled”, the “percentage of NK cells” value (5 μM added at Day 4, harvested at Day 14, 'No drug' control 5.53%) is reported as 13.7% and the “change of percentage of NK cells versus 'No drug' control” value (5 μM added at Day 4, harvested at Day 16) is reported as “doubled”. For the same compound, the “percentage of NK cells” value (5 μM added at Day 4, harvested at Day 16, 'No drug' control 21.8%) was 44.3%, the NK cell number (5 μM added on Day 2) was “clear increase” and the “human NK cell development from human HPCs cultured in vitro” value (summary in Discussion) was “significantly increase”.
